Measured values taken from ChEMBL document CHEMBL4041510, “Design, synthesis, and biological evaluation of structurally modified isoindolinone and quinazolinone derivatives as hedgehog pathway inhibitors” (Eur J Med Chem, 2017).
Active and inactive are the calls of the source. The calls are words filed in the database; no cut-off is given here.

Test system: not listed separately
Assay: Inhibition of hedgehog signaling pathway in mouse NIH/3T3 cells harboring Smo D477H mutant assessed as reduction in Gli mRNA expression by RT-PCR method
Assay type: cell-based
Conditions: NIH3T3

Structure (SMILES) | IC50 [nM]
C[C@@H]1CN(c2ccc(-n3cnc4c(-c5ccccc5)cccc4c3=O)cn2)C[C@H](C)O1 | 91.1
Cc1c(C(=O)Nc2ccc(N3C[C@@H](C)O[C@@H](C)C3)nc2)cccc1-c1ccc(OC(F)(F)F)cc1 [SONIDEGIB] | 22.7
CS(=O)(=O)c1ccc(C(=O)Nc2ccc(Cl)c(-c3ccccn3)c2)c(Cl)c1 [VISMODEGIB] | 1200
C[C@@H]1CN(c2ccc(-n3cnc4c(-c5ccc(F)cc5)cccc4c3=O)cn2)C[C@H](C)O1 | 246

Test system: not listed separately
Assay: Metabolic stability in human liver microsomes assessed as compound remaining at 1 uM preincubated for 5 mins followed by UDPGA addition measured after 30 mins by LC-ESI/MS/MS analysis relative to control
Assay type: ADME, microsome
Conditions: read-out: Stability

Structure (SMILES) | remaining at 0.5 h, 1 µM [%]
C[C@@H]1CN(c2ccc(-n3cnc4c(-c5ccccc5)cccc4c3=O)cn2)C[C@H](C)O1 | 91
Cc1c(C(=O)Nc2ccc(N3C[C@@H](C)O[C@@H](C)C3)nc2)cccc1-c1ccc(OC(F)(F)F)cc1 [SONIDEGIB] | 88.4
C[C@@H]1CN(c2ccc(-n3cnc4c(-c5ccc(F)cc5)cccc4c3=O)cn2)C[C@H](C)O1 | 83.5
Cc1cc(=O)oc2cc(O)ccc12 [HYMECROMONE] | 0.46

Test system: not listed separately
Assay: Metabolic stability in human liver microsomes assessed as compound remaining at 1 uM in absence of NADPH incubated for 5 mins by LC-ESI/MS/MS analysis relative to control
Assay type: ADME, microsome
Conditions: read-out: Stability

Structure (SMILES) | remaining at 5 min, 1 µM [%]
O=C1CC2(CCCC2)CC(=O)N1CCCCN1CCN(c2ncccn2)CC1 [BUSPIRONE] | 96.7
C[C@@H]1CN(c2ccc(-n3cnc4c(-c5ccccc5)cccc4c3=O)cn2)C[C@H](C)O1 | 83.7
Cc1c(C(=O)Nc2ccc(N3C[C@@H](C)O[C@@H](C)C3)nc2)cccc1-c1ccc(OC(F)(F)F)cc1 [SONIDEGIB] | 99.7
C[C@@H]1CN(c2ccc(-n3cnc4c(-c5ccc(F)cc5)cccc4c3=O)cn2)C[C@H](C)O1 | 91.3

Test system: not listed separately
Assay: Inhibition of hedgehog signaling pathway in mouse NIH/3T3 cells expressing wild type Smo assessed as reduction in Gli mRNA expression by RT-PCR method
Assay type: cell-based
Conditions: NIH3T3

Structure (SMILES) | IC50 [nM]
C[C@@H]1CN(c2ccc(-n3cnc4c(-c5ccccc5)cccc4c3=O)cn2)C[C@H](C)O1 | 257
Cc1c(C(=O)Nc2ccc(N3C[C@@H](C)O[C@@H](C)C3)nc2)cccc1-c1ccc(OC(F)(F)F)cc1 [SONIDEGIB] | 4.4
CS(=O)(=O)c1ccc(C(=O)Nc2ccc(Cl)c(-c3ccccn3)c2)c(Cl)c1 [VISMODEGIB] | 14.4
C[C@@H]1CN(c2ccc(-n3cnc4c(-c5ccc(F)cc5)cccc4c3=O)cn2)C[C@H](C)O1 | 114

Test system: not listed separately
Assay: Metabolic stability in human liver microsomes assessed as compound remaining at 1 uM in absence of UDPGA incubated for 5 mins by LC-ESI/MS/MS analysis relative to control
Assay type: ADME, microsome
Conditions: read-out: Stability

Structure (SMILES) | remaining at 5 min, 1 µM [%]
C[C@@H]1CN(c2ccc(-n3cnc4c(-c5ccccc5)cccc4c3=O)cn2)C[C@H](C)O1 | 93.1
Cc1c(C(=O)Nc2ccc(N3C[C@@H](C)O[C@@H](C)C3)nc2)cccc1-c1ccc(OC(F)(F)F)cc1 [SONIDEGIB] | 89.5
C[C@@H]1CN(c2ccc(-n3cnc4c(-c5ccc(F)cc5)cccc4c3=O)cn2)C[C@H](C)O1 | 83.2
Cc1cc(=O)oc2cc(O)ccc12 [HYMECROMONE] | 92.2

Organism: Mus musculus
Assay: Inhibition of hedgehog signaling pathway in Ptch deficient MEF assessed as downregulation of Gli-1 expression by Immunoblot analysis
Conditions: not given

Structure (SMILES) | inhibition
C[C@@H]1CN(c2ccc(-n3cnc4c(-c5ccccc5)cccc4c3=O)cn2)C[C@H](C)O1 | Active
C[C@@H]1CN(c2ccc(-n3cnc4c(-c5ccc(F)cc5)cccc4c3=O)cn2)C[C@H](C)O1 | Active

Organism: Mus musculus
Assay: Selectivity ratio of IC50 for hedgehog signaling pathway in mouse NIH/3T3 cells harboring Smo D477H mutant to IC50 for hedgehog signaling pathway in mouse NIH/3T3 cells expressing wild type Smo
Assay type: cell-based
Conditions: not given

Structure (SMILES) | Ratio IC50
C[C@@H]1CN(c2ccc(-n3cnc4c(-c5ccccc5)cccc4c3=O)cn2)C[C@H](C)O1 | 0.355
Cc1c(C(=O)Nc2ccc(N3C[C@@H](C)O[C@@H](C)C3)nc2)cccc1-c1ccc(OC(F)(F)F)cc1 [SONIDEGIB] | 5.16
CS(=O)(=O)c1ccc(C(=O)Nc2ccc(Cl)c(-c3ccccn3)c2)c(Cl)c1 [VISMODEGIB] | 82.7
C[C@@H]1CN(c2ccc(-n3cnc4c(-c5ccc(F)cc5)cccc4c3=O)cn2)C[C@H](C)O1 | 2.16

Test system: not listed separately
Assay: Inhibition of hedgehog signaling pathway in mouse NIH/3T3 cells measured after 24 hrs by Gli-dual luciferase reporter gene assay
Assay type: cell-based
Conditions: NIH3T3, 24 h

Structure (SMILES) | IC50 [nM]
C[C@@H]1CN(c2cc(-n3cnc4c(-c5ccc(OC(F)(F)F)cc5)cccc4c3=O)ncn2)C[C@H](C)O1 | 44200
C[C@@H]1CN(c2cc(N3Cc4c(cccc4-c4ccc(OC(F)(F)F)cc4)C3=O)ncn2)C[C@H](C)O1 | 1140
C[C@@H]1CN(c2ccc(N3Cc4c(cccc4-c4cccnc4)C3=O)cn2)C[C@H](C)O1 | 7690
C[C@@H]1CN(c2ccc(-n3cnc4c(-c5cccc6ccccc56)cccc4c3=O)cn2)C[C@H](C)O1 | 439
C[C@@H]1CN(c2ccc(-n3cnc4c(-c5ccccc5)cccc4c3=O)cn2)C[C@H](C)O1 | 38
CC1CCN(c2ccc(-n3cnc4c(-c5ccc(OC(F)(F)F)cc5)cccc4c3=O)cn2)CC1 | 847
O=c1c2cccc(-c3ccc(OC(F)(F)F)cc3)c2ncn1CCN1CCOCC1 | 6600
O=c1c2cccc(-c3ccc(OC(F)(F)F)cc3)c2ncn1CCCn1ccnc1 | 5280
O=c1c2cccc(Cl)c2ncn1-c1ccc(N2CCOCC2)cc1 | > 20000
Cc1c(C(=O)Nc2ccc(N3C[C@@H](C)O[C@@H](C)C3)nc2)cccc1-c1ccc(OC(F)(F)F)cc1 [SONIDEGIB] | 6
C[C@@H]1CN(c2cc(-n3cnc4c(Cl)cccc4c3=O)ncn2)C[C@H](C)O1 | 1240
O=c1c2cccc(Cl)c2ncn1-c1ccc(N2CCOCC2)nc1 | 15300
Cc1ccc(-c2cccc3c(=O)n(-c4ccc(N5C[C@@H](C)O[C@@H](C)C5)nc4)cnc23)cc1 | 305
C[C@@H]1CN(c2ccc(-n3cnc4c(-c5ccc(OC(F)(F)F)cc5)cccc4c3=O)cn2)C[C@H](C)O1 | 159
O=c1c2cccc(-c3ccc(OC(F)(F)F)cc3)c2ncn1-c1ccc(N2CCOCC2)cc1 | 4520
C[C@@H]1CN(c2ccc(N3Cc4c(cccc4-c4ccc(F)cc4F)C3=O)cn2)C[C@H](C)O1 | 1710
C[C@@H]1CN(c2ccc(-n3cnc4c(-c5ccc(S(C)(=O)=O)cc5)cccc4c3=O)cn2)C[C@H](C)O1 | 430
CS(=O)(=O)c1ccc(C(=O)Nc2ccc(Cl)c(-c3ccccn3)c2)c(Cl)c1 [VISMODEGIB] | 5
C[C@@H]1CN(c2ccc(N3Cc4c(cccc4-c4ccc(OC(F)(F)F)cc4)C3=O)cn2)C[C@H](C)O1 | 1800
COc1ccc(-c2cccc3c(=O)n(-c4ccc(N5C[C@@H](C)O[C@@H](C)C5)nc4)cnc23)cc1 | 196
O=c1c2cccc(Cl)c2ncn1-c1ccc(F)cc1 | 269
O=c1c2cccc(-c3ccccc3)c2ncn1-c1ccc(N2CCOCC2)cc1 | 132
O=c1c2cccc(-c3ccc(OC(F)(F)F)cc3)c2ncn1-c1ccc(N2CCOCC2)nc1 | 5410
C[C@@H]1CN(c2ccc(-n3cnc4c(-c5ccc(OC(F)(F)F)cc5)cccc4c3=O)nc2)C[C@H](C)O1 | 196
C[C@@H]1CN(c2ccc(-n3cnc4c(-c5ccc(F)cc5)cccc4c3=O)cn2)C[C@H](C)O1 | 118
CC1CCN(c2cc(-n3cnc4c(-c5ccc(OC(F)(F)F)cc5)cccc4c3=O)ncn2)CC1 | 7700
C[C@@H]1CN(c2ccc(-n3cnc4c(Cl)cccc4c3=O)cn2)C[C@H](C)O1 | 7490
COc1cccc(-c2cccc3c(=O)n(-c4ccc(N5CCOCC5)cc4)cnc23)c1 | 433

Organism: Mus musculus
Assay: Inhibition of hedgehog signaling pathway expressed in mouse NIH/3T3 cells assessed as inhibition of hedgehog-induced Gli-2 accumulation at tip of primary cilia by DAPI staining based confocal microscopic analysis
Assay type: cell-based
Conditions: not given

Structure (SMILES) | inhibition
C[C@@H]1CN(c2ccc(-n3cnc4c(-c5ccccc5)cccc4c3=O)cn2)C[C@H](C)O1 | Active
Cc1c(C(=O)Nc2ccc(N3C[C@@H](C)O[C@@H](C)C3)nc2)cccc1-c1ccc(OC(F)(F)F)cc1 [SONIDEGIB] | Active
CS(=O)(=O)c1ccc(C(=O)Nc2ccc(Cl)c(-c3ccccn3)c2)c(Cl)c1 [VISMODEGIB] | Active
C[C@@H]1CN(c2ccc(-n3cnc4c(-c5ccc(F)cc5)cccc4c3=O)cn2)C[C@H](C)O1 | Active

Test system: NIH3T3
Assay: Cytotoxicity against mouse NIH/3T3 cells assessed as cell viability by MTS assay
Assay type: cell-based
Conditions: not given

Structure (SMILES) | Activity [µM]
C[C@@H]1CN(c2cc(-n3cnc4c(-c5ccc(OC(F)(F)F)cc5)cccc4c3=O)ncn2)C[C@H](C)O1 | > 20
C[C@@H]1CN(c2cc(N3Cc4c(cccc4-c4ccc(OC(F)(F)F)cc4)C3=O)ncn2)C[C@H](C)O1 | > 20
C[C@@H]1CN(c2ccc(N3Cc4c(cccc4-c4cccnc4)C3=O)cn2)C[C@H](C)O1 | > 20
C[C@@H]1CN(c2ccc(-n3cnc4c(-c5cccc6ccccc56)cccc4c3=O)cn2)C[C@H](C)O1 | > 20
C[C@@H]1CN(c2ccc(-n3cnc4c(-c5ccccc5)cccc4c3=O)cn2)C[C@H](C)O1 | > 20
CC1CCN(c2ccc(-n3cnc4c(-c5ccc(OC(F)(F)F)cc5)cccc4c3=O)cn2)CC1 | > 20
O=c1c2cccc(-c3ccc(OC(F)(F)F)cc3)c2ncn1CCN1CCOCC1 | > 20
O=c1c2cccc(-c3ccc(OC(F)(F)F)cc3)c2ncn1CCCn1ccnc1 | > 20
O=c1c2cccc(Cl)c2ncn1-c1ccc(N2CCOCC2)cc1 | > 20
Cc1c(C(=O)Nc2ccc(N3C[C@@H](C)O[C@@H](C)C3)nc2)cccc1-c1ccc(OC(F)(F)F)cc1 [SONIDEGIB] | > 20
C[C@@H]1CN(c2cc(-n3cnc4c(Cl)cccc4c3=O)ncn2)C[C@H](C)O1 | > 20
O=c1c2cccc(Cl)c2ncn1-c1ccc(N2CCOCC2)nc1 | > 20
Cc1ccc(-c2cccc3c(=O)n(-c4ccc(N5C[C@@H](C)O[C@@H](C)C5)nc4)cnc23)cc1 | > 20
C[C@@H]1CN(c2ccc(-n3cnc4c(-c5ccc(OC(F)(F)F)cc5)cccc4c3=O)cn2)C[C@H](C)O1 | > 20
O=c1c2cccc(-c3ccc(OC(F)(F)F)cc3)c2ncn1-c1ccc(N2CCOCC2)cc1 | > 20
C[C@@H]1CN(c2ccc(N3Cc4c(cccc4-c4ccc(F)cc4F)C3=O)cn2)C[C@H](C)O1 | > 20
C[C@@H]1CN(c2ccc(-n3cnc4c(-c5ccc(S(C)(=O)=O)cc5)cccc4c3=O)cn2)C[C@H](C)O1 | > 20
C[C@@H]1CN(c2ccc(N3Cc4c(cccc4-c4ccc(OC(F)(F)F)cc4)C3=O)cn2)C[C@H](C)O1 | > 20
COc1ccc(-c2cccc3c(=O)n(-c4ccc(N5C[C@@H](C)O[C@@H](C)C5)nc4)cnc23)cc1 | > 20
O=c1c2cccc(Cl)c2ncn1-c1ccc(F)cc1 | > 20
O=c1c2cccc(-c3ccccc3)c2ncn1-c1ccc(N2CCOCC2)cc1 | > 20
O=c1c2cccc(-c3ccc(OC(F)(F)F)cc3)c2ncn1-c1ccc(N2CCOCC2)nc1 | > 20
C[C@@H]1CN(c2ccc(-n3cnc4c(-c5ccc(OC(F)(F)F)cc5)cccc4c3=O)nc2)C[C@H](C)O1 | > 20
C[C@@H]1CN(c2ccc(-n3cnc4c(-c5ccc(F)cc5)cccc4c3=O)cn2)C[C@H](C)O1 | > 20
CC1CCN(c2cc(-n3cnc4c(-c5ccc(OC(F)(F)F)cc5)cccc4c3=O)ncn2)CC1 | > 20
C[C@@H]1CN(c2ccc(-n3cnc4c(Cl)cccc4c3=O)cn2)C[C@H](C)O1 | > 20
COc1cccc(-c2cccc3c(=O)n(-c4ccc(N5CCOCC5)cc4)cnc23)c1 | > 20

Test system: not listed separately
Assay: Metabolic stability in human liver microsomes assessed as compound remaining at 1 uM preincubated for 5 mins followed by NADPH addition measured after 30 mins by LC-ESI/MS/MS analysis relative to control
Assay type: ADME, microsome
Conditions: read-out: Stability

Structure (SMILES) | remaining at 0.5 h, 1 µM [%]
O=C1CC2(CCCC2)CC(=O)N1CCCCN1CCN(c2ncccn2)CC1 [BUSPIRONE] | 5.17
C[C@@H]1CN(c2ccc(-n3cnc4c(-c5ccccc5)cccc4c3=O)cn2)C[C@H](C)O1 | 68.2
Cc1c(C(=O)Nc2ccc(N3C[C@@H](C)O[C@@H](C)C3)nc2)cccc1-c1ccc(OC(F)(F)F)cc1 [SONIDEGIB] | 68
C[C@@H]1CN(c2ccc(-n3cnc4c(-c5ccc(F)cc5)cccc4c3=O)cn2)C[C@H](C)O1 | 76.3

Organism: Mus musculus
Assay: Inhibition of hedgehog signaling pathway in mouse NIH/3T3 cells assessed as inhibition of hedgehog-induced Smo-EGFP ciliary translocation by DAPI staining based confocal microscopic analysis
Assay type: cell-based
Conditions: not given

Structure (SMILES) | inhibition
C[C@@H]1CN(c2ccc(-n3cnc4c(-c5ccccc5)cccc4c3=O)cn2)C[C@H](C)O1 | Active
Cc1c(C(=O)Nc2ccc(N3C[C@@H](C)O[C@@H](C)C3)nc2)cccc1-c1ccc(OC(F)(F)F)cc1 [SONIDEGIB] | Active
CS(=O)(=O)c1ccc(C(=O)Nc2ccc(Cl)c(-c3ccccn3)c2)c(Cl)c1 [VISMODEGIB] | Active
C[C@@H]1CN(c2ccc(-n3cnc4c(-c5ccc(F)cc5)cccc4c3=O)cn2)C[C@H](C)O1 | Active
